{
  "source": "patent US20020025537A1",
  "about": "“High-throughput methods for generating and screening compounds that affect cell viability” (priority 2000, published 2002)",
  "origin": "cited, not measured here",
  "key": {"[1]": {"system": "Gram negative and Gram positive pathogenic bacteria, including strains of methicillin resistant S. aureus and vancomycin resistant E. faecalis", "details": "in vitro; Gram negative and Gram positive pathogens incl. MRSA and vancomycin resistant E. faecalis"}, "[2]": {"system": "methicillin resistant S. aureus and vancomycin resistant E. faecalis", "details": "intravenous administration"}},
  "note": "Bridge positions count the residues as written; N and C are the ends. Ends that are not written are not given here.",
  "data": [
    {"substance": "protegrin-1 (RGGRLCYCRRRFCVCVGR-NH2; disulfide 8-13, 6-15; ends not checked; UniProt P32194 131-148, looked up) [PG-1, a native peptide obtained from porcine leukocytes]", "values": [
      {"measurement": "bactericidal activity", "setting": "[1]", "value": "rapid bactericidal activity"},
      {"measurement": "toxicity to the mice", "setting": "[2]", "value": "without apparent toxicity"},
      {"measurement": "protection from lethal challenges", "setting": "[2]; mice, challenge with MRSA or vancomycin resistant E. faecalis", "value": "protected mice from lethal challenges"}
    ]}
  ]
}
